Experimental findings from patent US12472230B2, “Peptides and methods of use thereof in treating uveitis” (Park Strategic Ventures LLC, priority 2019, dated 2025) are described below.

In general, solubility refers to the concentration that dissolves in the medium under given conditions. Higher therefore signals a readily soluble substance. A word on the half-life: it is the time needed for the level to fall by half in the phase considered.

Converted amounts (≈) assume the structure as drawn. Residues, ends and D or L forms follow the SMILES beside them. No end group written: not given here. *: point of attachment. Myristoyl = CCCCCCCCCCCCCC(=O)*

One data set is described as follows: Solubility in HNS. Type of data set: physicochemical.
The nature of another data set: T/2 in human plasma. In kind it is in vitro ADME.
For data set [1], the system named is release of inflammatory mediators from leukocyte cell types. In words: Release of inflammatory mediators from leukocyte cell types, MANS versus RNS. Type of data set: cell-based, human. The following applies: each of the cell types examined; time course of 0.5-3.0 hrs. On the procedure:
In an in vitro method to inhibit or attenuate the release of a mediator of inflammation such as those described herein, each of the cell types is preincubated with a peptide compound or peptide composition of this disclosure over a range of concentrations followed by incubation of these cells by a stimulator of release of inflammatory mediators, such as phorbol ester. The percent of inhibition of release of a mediator of inflammation is determined as compared to the release of the mediator in the absence of the peptide compound or peptide composition, such as in a specrophotometric readout of a concentration of the mediator released.

Consider “BIO-11018: SEQ ID NO 106 pegylated (GAQFSKTAAK; also: PEGylated, site not given here)”, for which the “Solubility in HNS” value in “Solubility in HNS” is greater than 100 mg/mL.

In turn, Ac-GAQFSKTAA-OH [BIO-10901] registered a solubility in the data set “Solubility in HNS” greater than 60 mg/mL. Further, in the data set “T/2 in human plasma”, the half-life was found to be 5 min.

Consider “Ac-GAQFSKTAAKGEAAAERPGEAAVA-OH [Ac-MANS]”, for which the concentration in solution in “Solubility in HNS” (solubility) came to 125 mg/mL.

In the data set “Solubility in HNS”, Ac-GAQFSKTAAKGE-NH2 [BIO-11211] showed a solubility of 60 mg/mL. For the same compound, the half-life in the data set “T/2 in human plasma” is greater than 156 min.

In “Solubility in HNS”, `CCCCCCCCCCCCCC(=O)NCC(=O)N[C@@H](C)C(=O)N[C@@H](CCC(N)=O)C(=O)N[C@@H](Cc1ccccc1)C(=O)N[C@@H](CO)C(=O)N[C@@H](CCCCN)C(=O)N[C@H](C(=O)N[C@@H](C)C(=O)N[C@@H](C)C(=O)N[C@@H](CCCCN)C(=O)O)[C@@H](C)O` [BIO-11000] (Myristoyl-GAQFSKTAAK-OH) showed a solubility of 15 mg/mL (≈ 12.3 mM). This compound had a half-life in “T/2 in human plasma” of 72 min.

In the case of `CCCCCCCCCCCCCC(=O)NCC(=O)N[C@@H](C)C(=O)N[C@@H](CCC(N)=O)C(=O)N[C@@H](Cc1ccccc1)C(=O)N[C@@H](CO)C(=O)N[C@@H](CCCCN)C(=O)N[C@H](C(=O)N[C@@H](C)C(=O)N[C@@H](C)C(=O)N[C@@H](CCCCN)C(=O)NCC(=O)N[C@@H](CCC(=O)O)C(=O)N[C@@H](C)C(=O)N[C@@H](C)C(=O)N[C@@H](C)C(=O)N[C@@H](CCC(=O)O)C(=O)N[C@@H](CCCNC(=N)N)C(=O)N1CCC[C@H]1C(=O)NCC(=O)N[C@@H](CCC(=O)O)C(=O)N[C@@H](C)C(=O)N[C@@H](C)C(=O)N[C@H](C(=O)N[C@@H](C)C(=O)O)C(C)C)[C@@H](C)O` [MANS] (Myristoyl-GAQFSKTAAKGEAAAERPGEAAVA-OH; C-terminus assumed), in “Solubility in HNS”, the solubility was less than 5 mg/mL. In the data set “T/2 in human plasma”, this compound showed a half-life of 12 min.

Turning to `CCCCCCCCCCCCCC(=O)NCC(=O)N[C@@H](C)C(=O)N[C@@H](CCC(N)=O)C(=O)N[C@@H](Cc1ccccc1)C(=O)N[C@@H](CO)C(=O)N[C@@H](CCCCN)C(=O)N[C@H](C(=O)N[C@@H](C)C(=O)N[C@@H](C)C(=O)N[C@@H](CCCCN)C(N)=O)[C@@H](C)O` [BIO-11002] (Myristoyl-GAQFSKTAAK-NH2), in “Solubility in HNS”, the solubility was less than 10 mg/mL. In the data set “T/2 in human plasma”, the “T/2 (human plasma), in words” value is “stable”.

Take Ac-GAQFSKTA-OH [BIO-10803]: in the data set “Solubility in HNS”, the solubility was 200 mg/mL.

Turning to `CC(=O)N[C@@H](C)C(=O)N[C@@H](CCCCN)C(=O)NCC(=O)N[C@@H](CCC(=O)O)C(N)=O` [BIO-91202, Ac-AKGE-NH2] (Ac-AKGE-NH2), the solubility in the data set “Solubility in HNS” was 200 mg/mL (≈ 450 mM).

As to `C[C@@H]1NC(=O)CNC(=O)[C@H](CCCCN)NC(=O)[C@H](C)NC(=O)[C@H](C)NC(=O)[C@H]([C@@H](C)O)NC(=O)[C@H](CCCCN)NC(=O)[C@H](CO)NC(=O)[C@H](Cc2ccccc2)NC(=O)[C@H](CCC(N)=O)NC1=O` [BIO-11007] (cyclo(GAQFSKTAAK); ring closure inferred), the concentration in solution in the data set “Solubility in HNS” (solubility) was 150 mg/mL (≈ 151 mM).

With `CC(=O)N[C@@H](C)C(=O)N[C@@H](CCCCN)C(=O)NCC(=O)N[C@@H](CCC(=O)O)C(=O)O` [BIO-91201, Ac-AKGE-OH] (Ac-AKGE-OH), the solubility in the data set “Solubility in HNS” was determined as 200 mg/mL (≈ 449 mM).

For the compound GTAPAAEGAGAEVKRASAEAKQAF [RNS], the “release of inflammatory mediators” value in data set [1] is recorded as “not”.

On to `CCCCCCCCCCCCCC(=O)N[C@@H](C)C(=O)N[C@@H](CCCCN)C(=O)NCC(=O)N[C@@H](CCC(=O)O)C(=O)O` [BIO-91200, Ma-AKGE-OH] (Myristoyl-AKGE-OH), for which, in “Solubility in HNS”, the solubility is roughly 1 mg/mL (≈ 1.63 mM).

Consider H-GAQFSKTAAK-NH2 [BIO-11005], for which the concentration in solution in “Solubility in HNS” (solubility) came to 100 mg/mL. Moreover, the half-life in the data set “T/2 in human plasma” was found to be 20 min.
